Reference: patent US8461328B2, “Tricyclic heterocyclic compounds, compositions and methods of use thereof” (Genentech, Inc., priority 2010, dated 2013)

What was measured:
Type in all cases: biochemical
JAK2 = target: T1, JAK2 (Homo sapiens, UniProt O60674); assay: JAK2 inhibition (Table 4); details: read-out: JAK2 Ki
T1 construct: made in house; host or cells: SF9 insect cells (baculovirus)

JAK3 = target: T2, JAK3 (Homo sapiens, UniProt P52333); assay: JAK3 inhibition (Table 4); details: read-out: JAK3 Ki
T2 construct: made in house; host or cells: SF9 insect cells (baculovirus)

JAK1 = target: T3, JAK1 (Homo sapiens, UniProt P23458); assay: JAK1 inhibition (Table 4); details: read-out: JAK1 Ki
T3 construct: made in house; host or cells: SF9 insect cells (baculovirus)

TYK2 = target: T4, TYK2 (Homo sapiens, UniProt P29597); assay: TYK2 inhibition (Table 4)
T4 construct: made in house; host or cells: SF9 insect cells (baculovirus)
T4 sequence (P29597 873-1187): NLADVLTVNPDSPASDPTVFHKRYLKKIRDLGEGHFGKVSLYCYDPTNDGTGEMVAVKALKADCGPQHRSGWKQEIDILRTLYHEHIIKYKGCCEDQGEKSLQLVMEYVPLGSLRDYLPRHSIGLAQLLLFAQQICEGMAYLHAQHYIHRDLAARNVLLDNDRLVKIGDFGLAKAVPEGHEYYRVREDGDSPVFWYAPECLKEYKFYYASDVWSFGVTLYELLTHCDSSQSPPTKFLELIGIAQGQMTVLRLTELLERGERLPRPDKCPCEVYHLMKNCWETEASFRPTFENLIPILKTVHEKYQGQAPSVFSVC

T2 sequence (P52333 783-1124): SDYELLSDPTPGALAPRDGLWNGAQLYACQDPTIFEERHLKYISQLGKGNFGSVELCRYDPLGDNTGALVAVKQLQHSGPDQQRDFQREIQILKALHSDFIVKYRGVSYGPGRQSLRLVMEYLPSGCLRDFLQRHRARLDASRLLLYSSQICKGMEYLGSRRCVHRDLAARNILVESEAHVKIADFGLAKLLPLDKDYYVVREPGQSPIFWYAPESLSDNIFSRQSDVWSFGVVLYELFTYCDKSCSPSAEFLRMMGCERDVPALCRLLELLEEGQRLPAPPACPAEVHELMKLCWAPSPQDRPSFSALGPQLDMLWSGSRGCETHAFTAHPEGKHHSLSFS
T1 sequence (O60674 812-1132): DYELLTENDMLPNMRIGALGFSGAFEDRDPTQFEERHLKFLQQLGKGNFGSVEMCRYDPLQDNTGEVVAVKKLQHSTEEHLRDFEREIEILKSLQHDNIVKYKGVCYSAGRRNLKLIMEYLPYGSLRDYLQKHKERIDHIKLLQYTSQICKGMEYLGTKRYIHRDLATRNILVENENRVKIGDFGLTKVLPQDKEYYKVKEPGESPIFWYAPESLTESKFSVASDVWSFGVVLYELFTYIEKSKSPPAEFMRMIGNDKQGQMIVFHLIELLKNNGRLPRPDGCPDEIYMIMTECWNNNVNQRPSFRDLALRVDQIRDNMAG
T3 sequence (P23458 852-1154): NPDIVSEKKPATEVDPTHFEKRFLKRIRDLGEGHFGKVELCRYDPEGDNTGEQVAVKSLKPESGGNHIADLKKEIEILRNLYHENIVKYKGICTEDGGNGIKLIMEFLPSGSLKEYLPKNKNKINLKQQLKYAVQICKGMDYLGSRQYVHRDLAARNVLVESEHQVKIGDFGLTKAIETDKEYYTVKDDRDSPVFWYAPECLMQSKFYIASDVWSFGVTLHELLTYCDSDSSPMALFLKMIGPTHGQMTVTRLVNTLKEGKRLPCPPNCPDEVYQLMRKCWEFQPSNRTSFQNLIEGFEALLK

Compound	Ki (JAK2) [µM]	Ki (JAK3) [µM]	Ki (JAK1) [µM]	Ki (TYK2) [µM]
O=C(Cc1nc2cnc3[nH]ccc3c2n1C1CCCOC1)N1CCCC(O)C1 (racemic) [Example 982, 1-(3-Hydroxy-piperidin-1-yl)-2-[1-(tetrahydro-pyran-3-yl)-1,6-dihydro-1,3,5,6-tetraaza-as-indacen-2-yl]-ethanone]	0.307	0.159	0.0343	0.273
CC(C)NC(=O)Cc1nc2cnc3[nH]ccc3c2n1C1CCCOC1 (racemic) [Example 963, N-Isopropyl-2-[1-(tetrahydro-pyran-3-yl)-1,6-dihydro-1,3,5,6-tetraaza-as-indacen-2-yl]-acetamide]	0.19	0.119	0.0432	0.373
C[C@H](O)c1nc2cnc3[nH]ccc3c2n1C1CCCOC1 (single isomer, unassigned) [Example 462]	0.538	1.16	0.09	1.37
N#CCCN1CCC(n2c(Cc3cccc(C#N)c3)nc3cnc4[nH]ccc4c32)CC1 [Example 405, 3-{1-[1-(2-Cyano-ethyl)-piperidin-4-yl]-1,6-dihydro-1,3,5,6-tetraaza-as-indacen-2-ylmethyl}-benzonitrile]	0.252	0.524	0.0306	0.445
CC(=O)N1CC[C@@H](n2cnc3cnc4[nH]ccc4c32)C1 [Example 188, 1-[(R)-3-(6H-1,2,3,5,6-Tetraaza-as-indacen-1-yl)-pyrrolidin-1-yl]-ethanone]	0.161	0.778	0.0685	0.672
CN(C)CC(=O)N1CCC[C@@H](n2cnc3cnc4[nH]ccc4c32)C1 [Example 32, 2-Dimethylamino-1-[(R)-3-(6H-1,3,5,6-tetraaza-as-indacen-1-yl)-piperidin-1-yl]ethanone]	0.568	1.82	0.181	3.18
FC(F)(F)c1nc2cnc3[nH]ccc3c2n1[C@@H]1CCCNC1 [Example 301, 1-(R)-Piperidin-3-yl-2-trifluoromethyl-1,6-dihydro-1,3,5,6-tetraaza-as-indacene]	1.3	1.45	0.373	2.16
CN1CC(c2nc3cnc4[nH]ccc4c3n2C2CCN(CCC#N)CC2)CC1=O (racemic) [Example 384, 3-{4-[2-(1-Methyl-5-oxo-pyrrolidin-3-yl)-6H-1,3,5,6-tetraaza-as-indacen-1-yl]-piperidin-1-yl}-propionitrile]	0.138	0.0481	0.0175	0.526
CC(O)c1nc2cnc3[nH]ccc3c2n1C1CCCN(C(=O)C2CC2C)C1 (centres unmarked) [Example 796, {3-[2-(1-Hydroxy-ethyl)-6H-1,3,5,6-tetraaza-as-indacen-1-yl]-piperidin-1-yl}-(2-methyl-cyclopropyl)-methanone]	0.746	0.884	0.055	0.617
c1ccc(CN2[C@@H]3CC[C@H]2C[C@H](n2cnc4cnc5[nH]ccc5c42)C3)cc1 [Example 81]	0.0158	0.297	0.023	0.222
CC(=O)N1CCC(c2nc3cnc4[nH]ccc4c3n2C2CCN(C(C)CC#N)CC2)CC1 (racemic) [Example 400, 3-{4-[2-(1-Acetyl-piperidin-4-yl)-6H-1,3,5,6-tetraaza-as-indacen-1-yl]-piperidin-1-yl}-butyronitrile]	0.115	0.283	0.0626	0.428
CN(CCO)C(=O)Cc1nc2cnc3[nH]ccc3c2n1C1CCCOC1 (racemic) [Example 969, N-(2-Hydroxy-ethyl)-N-methyl-2-[1-(tetrahydro-pyran-3-yl)-1,6-dihydro-1,3,5,6-tetraaza-as-indacen-2-yl]-acetamide]	1.09	0.511	0.171	1.14
Cn1ccnc1CN1CCC[C@@H](n2cnc3cnc4[nH]ccc4c32)C1 [Example 44, 1-[(R)-1-(1-Methyl-1H-imidazol-2-ylmethyl)-piperidin-3-yl]-1,6-dihdyro-1,3,5,6-tetraaza-as-indacene]	0.121	0.241	0.105	0.423

Now from value to molecule:

Ki (JAK2) [µM]	Ki (JAK3) [µM]	Ki (JAK1) [µM]	Ki (TYK2) [µM]	Compound
0.0533	0.0244	0.0259	0.0499	OCc1nc2cnc3[nH]ccc3c2n1C1CC2CCC1O2 (single isomer, unassigned) [Example 851, endo-[1-(7-Oxa-bicyclo[2.2.1]hept-2-yl)-1,6-dihydro-1,3,5,6-tetraaza-as-indacen-2-yl]-methanol]
0.0239	0.193	0.0111	0.079	COCC(=O)NC1CCC(n2cnc3cnc4[nH]ccc4c32)CC1 (centres unmarked) [Example 887, 2-Methoxy-N-[4-(6H-1,3,5,6-tetraaza-as-indacen-1-yl)-cyclohexyl]-acetamide]
0.103	0.0751	0.00943	0.0452	C[C@@H](O)c1nc2cnc3[nH]ccc3c2n1[C@@H]1COCCC1(F)F [Example 1012, (R)-1-[1-((R)-4,4-Difluoro-tetrahydro-pyran-3-yl)-1,6-dihydro-1,3,5,6-tetraaza-as-indacen-2-yl]-ethanol]
0.0287	0.017	0.00974	0.0167	Cc1nc2cnc3[nH]ccc3c2n1C1CCC(F)(F)CC1 [Example 114, 1-(4,4-Difluoro-cyclohexyl)-2-methyl-1,6-dihydro-1,2,3,5,6-tetraaza-as-indacene]
0.0631	1.07	0.0315	0.423	O=C(c1cccnc1)N1CCC(n2cnc3cnc4[nH]ccc4c32)CC1 [Example 34, Pyridin-3-yl-[4-(6H-1,3,5,6-tetraaza-as-indacen-1-yl)-piperidin-1-yl]methanone]
0.0183	0.0881	0.0066	0.0545	Cc1nc2cnc3[nH]ccc3c2n1[C@@H]1CC[C@@H](NCC(F)(F)F)C1 [Example 720, [(1R,3R)-3-(2-Methyl-6H-1,3,5,6-tetraaza-as-indacen-1-yl)-cyclopentyl]-(2,2,2-trifluoro-ethyl)-amine]
0.0609	0.11	0.00694	0.0392	CC(C)(C)OC(=O)N1CCC(N[C@H]2CC[C@H](n3cnc4cnc5[nH]ccc5c43)CC2)CC1 [Example 558, trans 4-[4-(6H-1,3,5,6-Tetraaza-as-indacen-1-yl)-cyclohexylamino]-piperidine-1-carboxylic acid tert-butyl ester]
0.0777	0.0631	0.0284	0.483	N#CCCN1CCC(n2c(CNCC(F)(F)F)nc3cnc4[nH]ccc4c32)CC1 [Example 695, 3-(4-{2-[(2,2,2-Trifluoro-ethylamino)-methyl]-6H-1,2,3,5,6-tetraaza-as-indacen-1-yl}-piperidin-1-yl)-propionitrile]
0.00944	0.0132	0.0019	0.00442	OCc1nc2cnc3[nH]ccc3c2n1C1CCN(CC(F)F)CC1 [Example 897, {1-[1-(2,2-Difluoro-ethyl)-piperidin-4-yl]-1,6-dihydro-1,3,5,6-tetraaza-as-indacen-2-yl}-methanol]
0.0707	0.354	0.021	1.16	Cn1cc(CN2CCC(n3cnc4cnc5[nH]ccc5c43)CC2)cn1 [Example 68]
0.0196	0.0908	0.00769	0.0903	CC(C)c1nccn1CCc1nc2cnc3[nH]ccc3c2n1C1CCN(CCC#N)CC1 [Example 816, 3-(4-{2-[2-(2-Isopropyl-imidazol-1-yl)-ethyl]-6H-1,3,5,6-tetraaza-as-indacen-1-yl}-piperidin-1-yl)-propionitrile]
0.022	0.0288	0.00459	0.135	COCC(=O)NCCc1nc2cnc3[nH]ccc3c2n1C1CCN(CCC#N)CC1 [Example 372, N-(2-{1-[1-(2-Cyano-ethyl)-piperidin-4-yl]-1,6-dihydro-1,3,5,6-tetraaza-as-indacen-2-yl}-ethyl)-2-methoxy-acetamide]
0.00822	0.0187	0.00057	0.00292	C[C@@H](O)c1nc2cnc3[nH]ccc3c2n1C1CC2CCC1C2 (stereo partly drawn) [Example 943, (R)-1-(1-Bicyclo[2.2.1]hept-2-yl-1,6-dihydro-1,3,5,6-tetraaza-as-indacen-2-yl)-ethanol]
0.00225	0.189	0.00114	0.0103	N#Cc1ccc(S(=O)(=O)N2CCC(n3cnc4cnc5[nH]ccc5c43)CC2)c(Cl)c1 [Example 446, 3-Chloro-4-[4-(6H-1,3,5,6-tetraaza-as-indacen-1-yl)-piperidine-1-sulfonyl]-benzonitrile]
0.0121	0.0481	0.00753	0.26	c1cncc(CN2CCC(n3nnc4cnc5[nH]ccc5c43)CC2)c1 [Example 282, 1-(1-Pyridin-3-ylmethyl-piperidin4-yl)-1,6-dihydro-1,2,3,5,6-pentaaza-as-indacene]
0.012	0.0965	0.00754	0.0739	COCCN1CCC(n2cnc3cnc4[nH]ccc4c32)CC1 [Example 63, 1-[1-(2-Methoxy-ethyl)-piperidin-4-yl]-1,6-dihydro-1,3,5,6-tetraaza-as-indacene]
